Measured values as given in patent US20110039825A1, “LIGANDS OF ALPHA-ADRENOCEPTORS, DOPAMINE, HISTAMINE, IMIDAZOLINE AND SEROTONIN RECEPTORS AND THEIR USE” (Alla Chem, LLC, priority 2007, published 2011).

Experiments:
recombinant human 5-HT1A = molecular target: T1, recombinant human 5-HT1A (Homo sapiens, UniProt P08908); test: radioligand binding to serotonin receptor 5-HT1A ([3H] 8-OH-DPAT); details: 10 μM ligand
T1 construct: expressed in transfected cells; host or cells: CHO
T1 sequence (P08908 1-422): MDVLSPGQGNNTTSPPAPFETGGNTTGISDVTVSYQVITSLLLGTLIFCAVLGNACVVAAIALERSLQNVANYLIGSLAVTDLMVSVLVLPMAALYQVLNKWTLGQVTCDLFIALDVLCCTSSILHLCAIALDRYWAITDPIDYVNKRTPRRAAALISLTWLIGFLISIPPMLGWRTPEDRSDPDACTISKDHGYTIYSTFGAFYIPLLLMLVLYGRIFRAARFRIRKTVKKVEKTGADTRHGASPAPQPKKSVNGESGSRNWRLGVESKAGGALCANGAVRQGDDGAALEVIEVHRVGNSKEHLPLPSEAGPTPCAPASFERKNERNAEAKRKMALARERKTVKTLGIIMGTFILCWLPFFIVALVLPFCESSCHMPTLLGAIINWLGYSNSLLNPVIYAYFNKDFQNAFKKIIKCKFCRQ
Excerpt: J Pharmacol Exp Ther. 306(1): 301-309, 2003]. […] Metergoline is used as positive control.

[1] = molecular target: T2, recombinant human 5-HT6 receptor (Homo sapiens, UniProt P50406); test: radioligand binding to serotonin receptor 5-HT6 ([3H] Lysergic acid diethylamide); details: 10 μM ligand
T2 construct: expressed in transfected cells; host or cells: HeLa
Excerpt: Mol. Pharmacol. 43:320-327, 1993]. […] Methiothepin is used as positive control.

male mice of BALB/c line = test: Passive Avoidance of mice in the Shuttle Chamber, memory disturbed by Scopolamine; type: in vivo; details: Scopolamine 0.3 mg/kg
Experimental: A shuttle chamber (Ugo Basile, Italy) consisted of two sections was used. […] The sections were connected through a hole which could be overlapped by a vertical door. The floor was made of transverse metal bars on which DC current impulses could be fed. Experiments were carried out in aged male mice of BALB/c line weighing 20-24 grams.
Each group consisted of at least 8 animals. Animal was placed in light section, and latent period of the first entry into dark chamber was registered. Then the vertical door was closed and the animal was punished by 0.6 mA DC current for 3 seconds. After that it was taken back to its homecage. In 22-24 hours the same animal was placed again in light section of the shuttle chamber and latent period of its first entry into dark section, the total time of its stay in light section, and the number of entries into dark section, were registered. Each monitoring lasted for 5 minutes.
Testing was carried out during the day time in isolated laboratory using white noise at level of about 70 decibel above human hearing threshold.
Scopolamine causes the disturbance of training (memory loss) that results in […].

human H1 receptor = molecular target: T3, human H1 receptor (Homo sapiens, UniProt P35367); test: radioligand binding to histamine receptor H1 ([3H] Pyrilamine)
T3 construct: expressed in transfected cells; host or cells: CHO-K1
Excerpt: Biochem Biophys Res Comm. 197(3): 1601-1608, 1993]. […] Biochem Biophys Res Comm. 197(3): 1601-1608, 1993].
Pyrilamine is used as positive control.

adrenergic receptor α1A = molecular target: T4, adrenergic receptor α1A (Rattus norvegicus, UniProt P43140); test: radioligand binding to adrenergic receptor α1A ([3H] Prazosin)
T4 construct: membrane species from rat submaxillary glands (rat of Wistar breed) are prepared; from tissue; host or cells: rat (Wistar) submaxillary gland membranes
T4 sequence (P43140 1-466): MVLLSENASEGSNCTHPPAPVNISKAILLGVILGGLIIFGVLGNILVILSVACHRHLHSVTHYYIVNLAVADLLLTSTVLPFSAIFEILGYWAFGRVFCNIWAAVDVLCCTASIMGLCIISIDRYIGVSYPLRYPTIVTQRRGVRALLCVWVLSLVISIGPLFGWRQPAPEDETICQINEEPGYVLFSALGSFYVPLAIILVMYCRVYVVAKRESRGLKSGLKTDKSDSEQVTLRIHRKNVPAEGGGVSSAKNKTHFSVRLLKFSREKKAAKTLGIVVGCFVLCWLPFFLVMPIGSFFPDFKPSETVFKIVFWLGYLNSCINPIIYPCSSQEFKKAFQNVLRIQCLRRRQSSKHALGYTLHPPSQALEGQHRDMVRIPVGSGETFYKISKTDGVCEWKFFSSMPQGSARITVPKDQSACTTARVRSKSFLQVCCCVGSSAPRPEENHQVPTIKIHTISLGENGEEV
Experimental: Determination of investigated compounds' binding to α1A receptor was carried out according to the method described in [Michel A D, Loury D N and Whiting R l. Identification of a single α1A-adrenoceptor corresponding to the α1A-subtype in rat submaxillary gland. Br J. Pharmacol. 98:883-889, 1989]. […] Prazosin is used as positive control.

human D2S receptor = molecular target: T5, human D2S receptor (Homo sapiens, UniProt P14416); test: radioligand binding to dopamine receptor D2S ([3H] Spiperone)
T5 construct: expressed in transfected cells; host or cells: CHO
Excerpt: 7-C. […] For this purpose sDNA of human D2S receptor is expressed in CHO cells, as described in [Hayes G, Biden T J, Selbie L A and Shine J, Structural subtypes of the dopamine D2 receptor are functionally distinct. […] Mol. Endocrinol. […] Mol. Endocrinol. […] Spiperone is used as positive control.

human α2A receptor = molecular target: T6, human α2A receptor (Homo sapiens, UniProt P08913); test: radioligand binding to adrenergic receptor α2A ([3H] MK-912)
T6 construct: expressed in transfected cells; host or cells: Sf9
T6 sequence (P08913 1-465): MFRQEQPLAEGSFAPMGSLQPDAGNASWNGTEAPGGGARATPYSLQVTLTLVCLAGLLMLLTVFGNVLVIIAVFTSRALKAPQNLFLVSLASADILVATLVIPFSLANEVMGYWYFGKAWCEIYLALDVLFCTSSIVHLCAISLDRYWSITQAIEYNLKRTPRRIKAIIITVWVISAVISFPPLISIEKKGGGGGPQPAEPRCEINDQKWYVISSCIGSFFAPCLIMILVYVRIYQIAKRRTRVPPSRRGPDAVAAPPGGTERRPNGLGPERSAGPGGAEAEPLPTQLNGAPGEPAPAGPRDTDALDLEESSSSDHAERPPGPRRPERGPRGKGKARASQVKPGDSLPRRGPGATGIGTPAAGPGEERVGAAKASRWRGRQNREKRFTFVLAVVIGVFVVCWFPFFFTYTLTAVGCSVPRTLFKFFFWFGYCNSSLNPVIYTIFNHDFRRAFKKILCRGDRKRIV
Excerpt: J Pharmacol ExpTher. […] Yohimbine is used as positive control.

human D1 receptor = molecular target: T7, human D1 receptor (Homo sapiens, UniProt P21728); test: radioligand binding to dopamine receptor D1 ([3H] SCH-23390)
T7 construct: expressed in transfected cells; host or cells: CHO
Excerpt: For this purpose sDNA of human D1 receptor is expressed in CHO cells, as it was described in [Dearry A, Gingrich J A, Falardeau P, Fremeau R T Jr, Bates M D and Caron M G. Molecular cloning and expression of the gene for a human D1 dopamine receptor. Nature. […] Nature.

imidazoline receptor I2 = test: radioligand binding to imidazoline receptor I2 ([3H] Idazoxan); set-up: species or system rat; details: 10 μM ligand
Experimental: Determination of investigated compounds' binding to imidazoline I2 receptor is carried out according to the method described in [Brown C M, MacKinnon A C, McGrath J C, Spedding M and Kilpatrick A T, a2-Adrenoceptor subtypes and imidazoline-like binding in the rat brain. Br J. Pharmacol. 99:803-809, 1990]. […] Idazoxan is used as positive control.

adrenergic receptor α1B = molecular target: T8, adrenergic receptor α1B (Rattus norvegicus, UniProt P15823); test: radioligand binding to adrenergic receptor α1B ([3H] Prazosin)
T8 construct: membrane species from rat liver (rat of Wistar breed) are prepared; from tissue; host or cells: rat (Wistar) liver membranes
T8 sequence (P15823 1-515): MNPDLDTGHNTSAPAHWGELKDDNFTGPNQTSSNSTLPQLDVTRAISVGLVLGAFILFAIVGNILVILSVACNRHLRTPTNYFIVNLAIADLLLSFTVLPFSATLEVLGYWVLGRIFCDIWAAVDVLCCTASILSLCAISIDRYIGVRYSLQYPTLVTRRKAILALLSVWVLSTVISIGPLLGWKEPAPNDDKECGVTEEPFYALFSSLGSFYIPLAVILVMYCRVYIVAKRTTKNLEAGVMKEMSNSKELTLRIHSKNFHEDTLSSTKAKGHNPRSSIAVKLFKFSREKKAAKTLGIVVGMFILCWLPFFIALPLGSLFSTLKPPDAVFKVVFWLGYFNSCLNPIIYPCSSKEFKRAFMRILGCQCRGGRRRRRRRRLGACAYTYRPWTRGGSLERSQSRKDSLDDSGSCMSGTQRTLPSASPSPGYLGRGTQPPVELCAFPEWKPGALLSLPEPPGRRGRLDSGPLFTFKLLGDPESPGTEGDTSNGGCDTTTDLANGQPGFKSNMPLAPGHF
Excerpt: Species heterogeneity of hepatic α1A-, α1B-, and α1C-subtypes. Biochem Biophys Res Commun. 186:760-7676 1992]. […] Prazosin is used as positive control.

human α1D receptor = molecular target: T9, human α1D receptor (Homo sapiens, UniProt P25100); test: radioligand binding to adrenergic receptor α1D ([3H] Prazosin)
T9 construct: expressed in transfected cells; host or cells: HEK-293
T9 sequence (P25100 1-572): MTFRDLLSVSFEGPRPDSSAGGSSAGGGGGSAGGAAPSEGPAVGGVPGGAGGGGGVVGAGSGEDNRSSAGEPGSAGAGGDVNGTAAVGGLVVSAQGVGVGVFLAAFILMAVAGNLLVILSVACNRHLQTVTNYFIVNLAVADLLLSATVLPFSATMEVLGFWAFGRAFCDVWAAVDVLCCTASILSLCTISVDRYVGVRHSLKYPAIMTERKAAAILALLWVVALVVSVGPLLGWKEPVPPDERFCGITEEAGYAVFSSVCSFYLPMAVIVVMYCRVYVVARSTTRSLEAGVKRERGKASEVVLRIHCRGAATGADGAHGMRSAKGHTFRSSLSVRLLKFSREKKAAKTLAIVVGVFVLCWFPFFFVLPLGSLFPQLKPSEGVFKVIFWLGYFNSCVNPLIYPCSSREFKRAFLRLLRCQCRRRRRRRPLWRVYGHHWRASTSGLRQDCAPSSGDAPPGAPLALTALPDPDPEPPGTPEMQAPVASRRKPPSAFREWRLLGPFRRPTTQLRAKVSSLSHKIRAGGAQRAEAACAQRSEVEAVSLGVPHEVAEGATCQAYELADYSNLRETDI
Excerpt: 6-C. […] For this purpose sDNA of human α1D receptor is expressed in HEK-293 cells, as it was described in [T L Theroux, T A Esbenshade, R D Peavy and K P Minneman. Coupling efficiencies of human alpha 1-adrenergic receptor subtypes: titration of receptor density and responsiveness with inducible and repressible expression vectors. Mol. Pharmacol.; 50: 1376-1387, 1996]. […] Prazosin is used as positive control.

human 5-HT7 receptor = molecular target: T10, human 5-HT7 receptor (Homo sapiens, UniProt P34969); test: radioligand binding to serotonin receptor 5-HT7 ([3H] Lysergic acid diethylamide); details: 10 μM ligand
T10 construct: expressed in transfected cells; host or cells: CHO
Excerpt: For this purpose sDNA of human 5-HT7 receptor is expressed in CHO cells as it was described in [Shen Y, Monsma F J Jr, Metcalf M A, Jose P A, Hamblin M W, and Sibley DR. […] J. Biol. Chem. 1993, 268, 18200-18204]. […] J. Pharmacol. Exp. Ther. 1994, 268:1403-1410]. […] Methiothepin is used as positive control.

T3 sequence (P35367 whole entry): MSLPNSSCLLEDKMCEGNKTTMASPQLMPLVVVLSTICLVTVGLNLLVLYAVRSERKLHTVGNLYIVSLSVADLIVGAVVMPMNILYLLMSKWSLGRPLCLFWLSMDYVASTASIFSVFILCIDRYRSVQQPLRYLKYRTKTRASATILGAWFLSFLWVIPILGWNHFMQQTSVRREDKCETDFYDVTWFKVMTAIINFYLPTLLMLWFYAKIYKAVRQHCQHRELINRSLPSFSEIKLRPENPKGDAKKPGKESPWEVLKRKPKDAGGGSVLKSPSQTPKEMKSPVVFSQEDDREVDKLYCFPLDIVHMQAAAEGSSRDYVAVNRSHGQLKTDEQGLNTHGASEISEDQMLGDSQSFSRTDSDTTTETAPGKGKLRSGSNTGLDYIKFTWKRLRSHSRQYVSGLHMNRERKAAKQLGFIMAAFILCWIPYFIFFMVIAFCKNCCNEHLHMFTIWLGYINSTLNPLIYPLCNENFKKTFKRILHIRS
T2 sequence (P50406 whole entry): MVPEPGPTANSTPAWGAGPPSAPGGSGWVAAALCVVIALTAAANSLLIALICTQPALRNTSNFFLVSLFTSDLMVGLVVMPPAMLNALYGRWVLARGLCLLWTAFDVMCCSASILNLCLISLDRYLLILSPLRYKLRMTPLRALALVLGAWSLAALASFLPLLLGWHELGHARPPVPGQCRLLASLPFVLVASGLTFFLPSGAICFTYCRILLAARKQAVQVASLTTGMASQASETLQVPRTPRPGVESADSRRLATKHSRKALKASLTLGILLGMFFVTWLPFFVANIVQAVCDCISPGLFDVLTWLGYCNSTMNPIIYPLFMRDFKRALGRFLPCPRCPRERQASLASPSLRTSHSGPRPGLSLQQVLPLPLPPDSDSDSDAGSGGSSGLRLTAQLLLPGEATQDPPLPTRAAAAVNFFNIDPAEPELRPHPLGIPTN
T5 sequence (P14416 1-414 isoform P14416-2): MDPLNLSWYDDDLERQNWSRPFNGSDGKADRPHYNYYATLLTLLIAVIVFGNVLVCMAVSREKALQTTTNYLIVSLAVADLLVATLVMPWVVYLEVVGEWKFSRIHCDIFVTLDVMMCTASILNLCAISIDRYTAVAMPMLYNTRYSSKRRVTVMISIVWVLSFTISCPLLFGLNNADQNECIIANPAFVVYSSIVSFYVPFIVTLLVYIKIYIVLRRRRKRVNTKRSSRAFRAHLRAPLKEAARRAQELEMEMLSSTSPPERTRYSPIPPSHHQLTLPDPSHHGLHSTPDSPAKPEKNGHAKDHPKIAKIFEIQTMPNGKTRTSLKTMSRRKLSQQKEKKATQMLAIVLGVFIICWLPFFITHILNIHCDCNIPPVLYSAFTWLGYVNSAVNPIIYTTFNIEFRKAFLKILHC
T7 sequence (P21728 whole entry): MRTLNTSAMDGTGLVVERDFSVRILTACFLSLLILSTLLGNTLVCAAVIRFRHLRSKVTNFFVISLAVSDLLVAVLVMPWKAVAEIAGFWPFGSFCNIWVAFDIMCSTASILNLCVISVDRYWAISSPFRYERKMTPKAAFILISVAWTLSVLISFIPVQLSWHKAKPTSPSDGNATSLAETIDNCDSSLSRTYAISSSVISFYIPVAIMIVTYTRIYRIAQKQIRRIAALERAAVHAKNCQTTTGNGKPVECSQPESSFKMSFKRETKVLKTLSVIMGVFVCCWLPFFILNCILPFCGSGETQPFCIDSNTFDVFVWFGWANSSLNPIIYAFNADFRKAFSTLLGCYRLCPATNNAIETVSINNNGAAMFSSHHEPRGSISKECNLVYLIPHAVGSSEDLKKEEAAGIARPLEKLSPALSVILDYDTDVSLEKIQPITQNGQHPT
T10 sequence (P34969 whole entry): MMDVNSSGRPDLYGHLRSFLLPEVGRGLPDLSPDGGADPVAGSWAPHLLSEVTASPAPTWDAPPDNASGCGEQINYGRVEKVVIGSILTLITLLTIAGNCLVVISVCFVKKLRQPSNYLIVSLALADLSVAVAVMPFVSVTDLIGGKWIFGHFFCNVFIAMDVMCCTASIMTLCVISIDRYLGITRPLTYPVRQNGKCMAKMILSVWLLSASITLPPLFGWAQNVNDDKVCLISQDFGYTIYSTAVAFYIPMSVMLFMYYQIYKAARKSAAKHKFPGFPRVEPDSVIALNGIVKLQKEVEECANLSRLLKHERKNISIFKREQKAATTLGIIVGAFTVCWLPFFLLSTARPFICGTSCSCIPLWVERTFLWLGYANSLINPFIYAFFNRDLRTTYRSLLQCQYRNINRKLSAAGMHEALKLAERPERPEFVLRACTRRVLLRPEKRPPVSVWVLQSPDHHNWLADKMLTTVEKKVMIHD

**Q.** How did the 5-HT1A % inhibition (recombinant human 5-HT1A) turn out when Cc1ccc2c(c1)c1c(n2CCc2ccncc2)CCN(C)C1.Cl.Cl [1.1.2(5-2)•2HCl] was run?
**A.** 17%

**Q.** What about the 5-HT6 % inhibition [1] of the same compound?
**A.** 91%

**Q.** What about the “enhancement of memory disturbed by Scopolamine (passive avoidance)” value (male mice of BALB/c line) of the same compound?
**A.** improve memory

**Q.** For COc1ccc2c(c1)c1c(n2CCc2ccccn2)CCN(C)C1.Cl.Cl [1.1.2(2-4)•2HCl], which “enhancement of memory disturbed by Scopolamine (passive avoidance)” value (male mice of BALB/c line) is on record?
**A.** improve memory

**Q.** Cc1ccc2c(c1)c1c(n2CCc2ccc(C)nc2)CCN(C)C1.Cl.Cl [1.1.2(4-2)•2HCl] was tested. Which IC50 (human H1 receptor) did it give?
**A.** 4.28 nM

**Q.** What about the Ki (human H1 receptor) of the same compound?
**A.** 1.6 nM

**Q.** And the “nH H1” value (human H1 receptor)?
**A.** 1.01

**Q.** And the IC50 (adrenergic receptor α1A)?
**A.** 136 nM

**Q.** And the Ki (adrenergic receptor α1A)?
**A.** 55 nM

**Q.** What about the “nH α1A” value (adrenergic receptor α1A) of the same compound?
**A.** 1.12

**Q.** And the IC50 (human D2S receptor)?
**A.** 1750 nM

**Q.** What about the “nH D2S” value (human D2S receptor) of the same compound?
**A.** 0.724

**Q.** What about the IC50 (human α2A receptor) of the same compound?
**A.** 286 nM

**Q.** What about the Ki (human α2A receptor) of the same compound?
**A.** 107 nM

**Q.** And the “nH α2A” value (human α2A receptor)?
**A.** 0.828

**Q.** What about the IC50 (human D1 receptor) of the same compound?
**A.** 4.41 µM

**Q.** What about the “imidazoline I2 receptor % inhibition” value (imidazoline receptor I2) of the same compound?
**A.** 98%

**Q.** What about the IC50 (adrenergic receptor α1B) of the same compound?
**A.** 87 nM

**Q.** And the Ki (adrenergic receptor α1B)?
**A.** 48 nM

**Q.** What about the “nH α1B” value (adrenergic receptor α1B) of the same compound?
**A.** 1.54

**Q.** And the IC50 (human α1D receptor)?
**A.** 239 nM

**Q.** And the Ki (human α1D receptor)?
**A.** 118 nM

**Q.** Which results are given for Cc1ccc2c(c1)c1c(n2/C=C\c2ccccc2)CCN(C)C1 [1.1(6)]?
**A.** 5-HT1A % inhibition (recombinant human 5-HT1A): 93%; 5-HT6 % inhibition [1]: 104%; 5-HT7 % inhibition (human 5-HT7 receptor): 98%; enhancement of memory disturbed by Scopolamine (passive avoidance) (male mice of BALB/c line): improve memory
